# Laboratory results as given in patent publication US20220079194A1, “EXTRUDATE FOOD COMPOSITIONS COMPRISING CULTIVATED ANIMAL CELLS AND METHODS OF PRODUCTION THEREOF” (GOOD Meat, Inc., priority 2020, published 2022).
# Columns and labels:
# C1F chicken cells = test: Alternative sugars as carbon source for C1F suspension cultures; type: cell-based; conditions: for viable cell density at peak: 3 g/L sugar from day 0, batch, day 3, 1.25% FBS
# Method: We evaluated the impact of alternative sugars (mannose, fructose and galactose) on the growth and metabolism of an in-house C1F chicken cells grown in suspension cultures containing 1.25% FBS. Specific net growth rate (uN) and Specific glucose consumption rate (qGluc) or specific lactate production rate (qLac) were calculated according to equation 1 or 2 as disclosed in Example 12.
# Suspension cultures as described herein were cultivated using 3 g/L of the respective sugars were added from day 0 and cultured in a batch mode up to day 3. On day 3 after sampling, an additional 3 g/L of each sugar was added to the respective flasks. By day 3, at the peak cell density, flasks that used glucose as carbon source had the highest viable cell density (˜2.805×10^6 cells/mL), followed by flasks with mannose (˜2.40×10^6 cells/mL), then fructose (1.935×10^6 cells/mL) and lastly galactose (0.915×10^6 cells/mL).
# Since we observed that the C1F cells could utilize fructose as a carbon source, we evaluated the effect of different starting concentration of fructose. In one experiment, 6 g/L of fructose was added to one set of duplicate flasks from day 0, and 3 g/L of fructose added each to another set of duplicate flasks from day 0. In the flasks starting with 3 g/L of fructose, an additional 3 g/L of fructose was added on day 1 of one of the duplicates and day 2 of the other duplicate.
# We next evaluated the effect of combining glucose, mannose and fructose on growth and lactate production. Using a design-of-experiment (DOE) approach, 17 batch shake flask runs were carried out evaluating varying combinations of concentrations of glucose, mannose and fructose as energy sources for suspension chicken C1F cells. The experimental design used included 3 factors (glucose, mannose and fructose) and 4 levels (0, 0.5, 1.5 and 3.0 g/L). By day 3, cells with the base carbon sources 3.0 glucose/0.5 fructose/0.5 mannose had the highest viable cell density (VCD) of 3.8×10^6 cell/mL, followed by 3.0 glucose/0.0 fructose/3.0 mannose and 3.0 glucose/3.0 fructose/3.0 mannose. […]
# C1F cells [1] = test: Sodium oxamate treatment of C1F suspension culture (lactate, glucose, growth); type: cell-based, chicken
# Method: […] cells were cultivated in suspension culture supplemented with 1.25% bovine serum. Different concentrations of sodium oxamate were tested: 1, 3, 5, 10, 30, 60, 100, and 200 mM, and production of lactate, glucose consumption, cell growth rates and cell density were measured. The specific rates were calculated using daily viable cell concentration and metabolite concentrations for the duration of the cell culture. Specific net growth rates (UN) were calculated as a change in VCD over a time interval t1 to t2 using equation (1): Specific glucose consumption rate (qGluc) or specific lactate production rate (qLac) were determined using equation (2), where P is glucose or lactate concentration: Viable cell density (VCD) and viability were determined by the trypan blue exclusion method using the Vi-cellTM (Beckman Coulter) from 1 mL daily samples taken from shake flask cell culture. Gas and pH values including metabolite (glucose, lactate glutamine, glutamate, ammonium) concentrations were measured using the Bioprofile Flex analyzer (Nova Biomedical). Osmolality was measured using the OsmoPro Multi-Sample Micro-Osmometer (Advanced Instruments) which employs the freezing point technology. To further examine if the effects of oxamate remained similar in cell culture with metabolic by-products already present, we passaged cells treated with 30 mM oxamate using a 1:3 (v/v) split with fresh media (1⁄3 of the volume of spent media and 2⁄3 of fresh media). Having been used in culture for several days, carried over media invariably contains residual amounts (carryover) of metabolites resultant from cell consumption.
# C1F cells [2] = test: as above; type: cell-based, chicken; conditions: 10, 15, 20 and 30 mM, 3-day batch cell culture
smiles,measurement,setting,value
O=C(CO)[C@@H](O)[C@H](O)[C@H](O)CO [fructose],viable cell density at peak,C1F chicken cells,1.935×10^6 cells/mL
same,"lactate accumulation, higher by day 3",C1F chicken cells; 6 g/L from day 0 vs 3 g/L from day 0 plus 3 g/L later,36%
O=C[C@H](O)[C@@H](O)[C@@H](O)[C@H](O)CO [galactose],viable cell density at peak,C1F chicken cells,0.915×10^6 cells/mL
"NC(=O)C(=O)[O-].[Na+] [oxamate, sodium oxamate]",reduction in lactate production,"C1F cells [1]; 10 mM, day 2, C1F-SCM batch shake flasks, vs control, p<0.05",28%
same,cell viability and osmolality of the media,C1F cells [1]; 30 mM,not compromised
same,specific glucose consumption (qGluc),C1F cells [1]; 30 mM,decreased
same,increase in maximum viable cell density,C1F cells [1]; 30 mM vs control,~44%
same,ammonium accumulation,"C1F cells [1]; 30 mM, between days 3 and 5, relative to non-treated control",spiked out
same,reduction in cumulative lactate production,"C1F cells [1]; 30 mM, by day 5, vs control group",~23%
same,peak viable cell density,"C1F cells [1]; 30 mM, day 5, passaged 1:3 with spent media carryover",2.79×10^6 cells/mL
same,lactate production,"C1F cells [1]; 30, 60, 100 and 200 mM, 3-day batch culture",concentration-dependent decrease
same,lactate production vs control,"C1F cells [1]; other concentrations tested (1, 3, 5 mM), day 2, C1F-SCM batch",appreciable decrease in lactate production
same,decrease in lactate production,C1F cells [2],about 52%
